The subject of data set [1] is gram-positive microorganisms. Particulars: many gram-positive microorganisms; cited from earlier work.
The next data set concerns Streptococcus pyogenes. Particulars: Streptococcus pyogenes resistant to penicillin and other antibiotics; cited from earlier work.
Data set [2] concerns tuberculosis Mycobacterium. The following applies: cited from earlier work.
The test system of another data set is gram-negative bacteria. Particulars: a large number of gram-negative bacteria; cited from earlier work.
Data set [3] deals with intracellular Mycobacterium tuberculosis. Particulars: cited from earlier work.
For data set [4] the following is noted: in vivo; cited from earlier work.
For data set [5], the system named is Mycobacterium tuberculosis Erdman (ATCC 35801). Briefly: anti-tuberculosis activity on a model of mice infected with Mycobacterium tuberculosis (acute tuberculosis infection). The following applies: Rifalazil 2.5 mg/kg/day intraperitoneally, 3 week administration, BALB/c mice.

Results on 3 compounds are retold here after patent publication US9381201B2, “Pharmaceutical composition and kit for treating bacterial infections” (priority 2011, dated 2016).

In the case of `CO[C@H]1/C=C/O[C@@]2(C)Oc3c(C)c(O)c4c(O)c(c(/C=N/N5CCN(C)CC5)c(O)c4c3C2=O)NC(=O)/C(C)=C\C=C\[C@H](C)[C@H](O)[C@@H](C)[C@@H](O)[C@@H](C)[C@H](OC(C)=O)[C@@H]1C` [Rifampicin], the minimal inhibiting concentration in data set [1] was 1 to 100 ng/mL; in data set [2] it was 5 to 500 ng/mL; in the data set on gram-negative bacteria it was 1000 to 10000 ng/mL. For the same compound, the “share of Streptococcus pyogenes sensitive” value in the data set on Streptococcus pyogenes is on record as “Over 95%”.

Regarding `CO[C@H]1/C=C/O[C@@]2(C)Oc3c(C)c(O)c4c(c3C2=O)C2=NC3(CCN(CC(C)C)CC3)NC2=C(NC(=O)/C(C)=C\C=C\[C@H](C)[C@H](O)[C@@H](C)[C@@H](O)[C@@H](C)[C@H](OC(C)=O)[C@@H]1C)C4=O` [Rifabutin], in data set [3], the “active concentration relative to Rifampicin” value is reported as 2 times less.

As to Rifalazil, in data set [4], the half-life of elimination is greater than 100 h. Moreover, in data set [5], the “Lowering of micobacterium titers in mice lungs in comparison with the control (CMC) on the 31 day” value is given as 87 times.
